Results taken from paper PMC5459853, “Cathepsin S inhibition combines control of systemic and peripheral pathomechanisms of autoimmune tissue injury” (Scientific Reports, 2017).
“Also recorded” adds a separate entry of the source.

What was measured:
Format in all cases: in vivo
[1] = test system: MRL-(Fas)lpr mice; assay: Intravenous recombinant Cat-S injection: albuminuria and glomerular ultrastructure (TEM); settings: 10 µg recombinant Cat-S i.v.
Protocol: (§1) Four-week-old female MRL-(Fas)lpr mice were purchased from Harlan Winkelmann (Borchen, Germany) and kept under pathogen-free conditions in a 12 hour light and dark cycle with free access to food and water. All animal experiments were performed in accordance with the European protection laws of animal welfare, and with approval by the local government authorities Regierung von Oberbayern (reference number: 55.2.1-54-2532.2-11-12). At 11 or 15 weeks of age only mice with proteinuria (Albustix, Bayer AG, Leverkusen, Germany) were randomized into five different groups (n = 10) receiving different medicated diets: Three groups were fed with chow mixed with either 3, 10 or 30 mg/kg/day RO5459072, another group’s chow was mixed with 100 mg/kg/day mycophenolate mofetil (MMF), and one group received a standard diet (vehicle). The dose of MMF was chosen according to several studies reporting strong efficacy on SLE and lupus nephritis in MRL-(Fas)lpr mice[24]–[26]. […] At the age of 19 weeks all mice were sacrificed by cervical dislocation. Blood and urine samples were collected at different time points as indicated. In other experiments 7 week old female MRL-(Fas)lpr mice were randomized into three groups (n = 3) to receive a single intravenous injection of 10 µg sterile recombinant Cat-S and one group receiving vehicle (100 µl sterile PBS). One of the Cat-S groups was pretreated with 30 mg/kg/day RO5459072 starting one week prior to Cat-S injection; another group was pretreated with a total of four daily intra-peritoneal injections of the PAR-2 inhibitor GB83 (10 mg/kg).
Urinary albumin/creatinine ratios were determined using the Mouse Albumin ELISA Quantitation set (Bethyl Laboratories, Montgomery, TX) and the Creatinine FS kit (DiaSys Diagnostic Systems, Holzheim, Germany)[44]. BUN levels were determined in plasma samples using a Urea FS kit (DiaSys Diagnostic Systems). Mouse IgM, IgG and its isotypes IgG1, IgG2a and IgG2b plasma levels were measured using ELISA Sets (Bethyl Laboratories) at a plasma dilution of 1:1,000 to 1:100,000. Double-stranded DNA IgG and IgM antibodies were quantified as described. Briefly, 96 well Nunc-Immuno plates (Thermo Fisher Scientific, Roskilde, Denmark) were coated with poly-L-lysine (1:1 diluted with PBS) and incubated for two hours. […] Absorbance was measured at 450 nm using a Tecan Microplate Reader (Biotek, Winnoski, VT). Indirect immunofluorescence was used to quantify ANA in mouse plasma. […]
Mouse kidney tissue was fixed in 2% paraformaldehyde/2% glutaraldehyde and 0.1M sodium phosphate buffer (pH 7.4) for 24 hours and processed as described. Samples were analyzed with a 1200EX electron microscope (JEOL, Tokyo, Japan).

[2] = test system: MRL-(Fas)lpr mice; assay: Experimental lupus nephritis, late onset of treatment week 15 to 19; settings: late onset week 15-19
Protocol: To further assess the potency of Cat-S inhibition to control advanced lupus nephritis we performed identical experiments with the highest dose of RO5459072 and MMF, which were not initiated before week 15 of age and continued for only 4 weeks and terminated again at week 19.
as §1
(§2) Kidney tissue samples were collected from all mice and fixed overnight in 4% buffered formalin. Subsequently the fixed tissue samples were embedded in paraffin and cut into 4 µm thick serial sections. Kidney paraffin sections were stained with periodic acid-Schiff (PAS) reaction using standardized protocols as described. Scoring of lupus nephritis activity and chronicity indices was performed according to human lupus nephritis, [43]. Methenamine silver staining was performed on paraffin embedded kidney sections and semiquantitatively scored form 0–3 by a blinded observer. For immunostaining the following primary antibodies were used: anti-mouse CD3 (Abcam, Cambridge, UK), complement C3c (Biobyt Ltd, Cambridge, UK), CD31 (Dianova GmbH, Hamburg, Germany), WT1 (Santa Cruz Biotechnology, Dallas, Texas) and nephrin (Acris Antibodies, San Diego, CA). The immunostaining for C3c and CD31 were analyzed using the ImageJ software by measuring positively stained area and dividing it by the total area of the glomerulus and reported as percentage of +ve area. Sections stained for WT1/nephrin and CD3 were evaluated by counting positive cells per glomerulus. All the morphometric analysis were carried out in a blinded fashion.
(§3) Urinary albumin/creatinine ratios were determined using the Mouse Albumin ELISA Quantitation set (Bethyl Laboratories, Montgomery, TX) and the Creatinine FS kit (DiaSys Diagnostic Systems, Holzheim, Germany)[44]. BUN levels were determined in plasma samples using a Urea FS kit (DiaSys Diagnostic Systems). Mouse IgM, IgG and its isotypes IgG1, IgG2a and IgG2b plasma levels were measured using ELISA Sets (Bethyl Laboratories) at a plasma dilution of 1:1,000 to 1:100,000. Double-stranded DNA IgG and IgM antibodies were quantified as described. Briefly, 96 well Nunc-Immuno plates (Thermo Fisher Scientific, Roskilde, Denmark) were coated with poly-L-lysine (1:1 diluted with PBS) and incubated for two hours. After washing the plates, the plates were coated with 1 µg/ml mouse tail dsDNA sparing the wells for standards, which were coated with anti-mIgG and anti-mIgM (Bethyl Laboratories). […]

[3] = test system: MRL-(Fas)lpr mice; assay: Experimental SLE and lupus nephritis, treatment week 11 to 19
Protocol: as §1, §2
as §3, with “Laboratories). The standard curve was fixed from purified mIgG and mIgM (Bethyl Laboratories). The plasma samples were diluted 1:1,000 and added into the wells. After 1 h the assay was developed using HRP-labelled goat anti-mIgG and anti-mIgM and TMB substrate (BD Bioscience, San Diego, CA).” for “Laboratories).”

| Compound | Cat-S-induced albuminuria ([1]; 30 min, RO5459072 30 mg/kg/day pretreatment, GB83 10 mg/kg i.p.) | Cat-S-induced glomerular endothelial cell injury (TEM) ([1]; 24 h) | anti-dsDNA IgM [2] | lupus nephritis disease chronicity index [2] | plasma IgM levels [2] | proteinuria and BUN at week 19 compared to control mice [2] | plasma IgG and its isotypes and anti-dsDNA IgG ([2]; highest dose of RO5459072, MMF) | food intake or body weight between groups ([3]; medicated diets, throughout the study period) | intrarenal mRNA expression of IL-6, MCP-1/CCL2, RANTES/CCL5 and CXCL2 ([3]; real time PCR, kidney) | intrarenal mRNA expression of TNF-α, IFN-γ and SDF-1/CXCL12 ([3]; real time PCR, kidney) | blood urea nitrogen (BUN) over time ([3]; week 11-19) | total levels of plasma IgM ([3]; week 11-19, ELISA) | plasma dsDNA IgG levels (IgG autoantibodies) ([3]; week 11-19, RO5459072 highest dose, MMF 100 mg/kg/day, ELISA) | spleen CD11c+/CD11b+/MHCII+ antigen-presenting cells ([3]; week 11-19, flow cytometry) | integrity of the glomerular vasculature (CD31 staining) ([3]; week 19) |
| --- | --- | --- | --- | --- | --- | --- | --- | --- | --- | --- | --- | --- | --- | --- | --- |
| CC[C@H](C)[C@H](NC(=O)[C@H](CC1CCCCC1)NC(=O)c1ccno1)C(=O)N1CCC2(CCc3ccccc32)CC1 [GB83, reference compound] | completely prevented; also recorded: entirely blocked | completely prevented | – | – | – | – | – | – | – | – | – | – | – | – | – |
| COc1c(C)c2c(c(O)c1C/C=C(\C)CCC(=O)OCCN1CCOCC1)C(=O)OC2 [MMF, mycophenolate mofetil, reference compound] | – | – | did not affect | failed to significantly suppress | trend toward lower | significantly reduced | had no effect | no significant difference | suppressed | remained unaffected | prevented the progressive increase | suppressed plasma IgM levels below baseline | does not reduce | suppressed | improved |
